Reference: patent US9695155B2, “Herbicidal substituted pyrimidinyloxy benzene compounds” (E. I. DU PONT DE NEMOURS AND COMPANY, priority 2013, dated 2017)

Experiments:
sandbur = experiment: Test E preemergence; format: in vivo, Cenchrus echinatus; conditions: for Sandbur plant response rating: scale 0 to 100 (0 no effect, 100 complete control); for Plant response rating, Sandbur: 125 g ai/ha, scale 0 to 100, 0 no effect, 100 complete control
Method in brief: (§1)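 Test chemicals formulated in a non-phytotoxic solvent mixture containing a surfactant were applied preemergence to seeds in silt loam soil or postemergence to plants at the 1- to 4-leaf stage in potting mix. After 14 to 21 days in a greenhouse, injury was visually rated against controls on a 0-100 scale (0 = no effect, 100 = complete control).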

kochia = experiment: Test E preemergence; format: in vivo, Kochia scoparia; conditions: for Kochia plant response rating: scale 0 to 100 (0 no effect, 100 complete control); for Plant response rating, Kochia: 125 g ai/ha, scale 0 to 100, 0 no effect, 100 complete control
Method in brief: as §1

soybean = experiment: Test E preemergence; format: in vivo, Glycine max; conditions: for Soybean plant response rating: scale 0 to 100 (0 no effect, 100 complete control); for Plant response rating, Soybean: 125 g ai/ha, scale 0 to 100, 0 no effect, 100 complete control
Method in brief: as §1

Italian ryegrass = experiment: Test E preemergence; format: in vivo, Lolium multiflorum; conditions: for Ryegrass, Italian plant response rating: scale 0 to 100 (0 no effect, 100 complete control); for Plant response rating, Ryegrass, Italian: 125 g ai/ha, scale 0 to 100, 0 no effect, 100 complete control
Method in brief: as §1

giant foxtail = experiment: Test E preemergence; format: in vivo, Setaria faberii; conditions: for Foxtail, Giant plant response rating: scale 0 to 100 (0 no effect, 100 complete control); for Plant response rating, Foxtail, Giant: 125 g ai/ha, scale 0 to 100, 0 no effect, 100 complete control
Method in brief: as §1

palmer pigweed = experiment: Test E preemergence; format: in vivo, Amaranthus palmeri; conditions: for Pigweed, Palmer plant response rating: scale 0 to 100 (0 no effect, 100 complete control); for Plant response rating, Pigweed, Palmer: 125 g ai/ha, scale 0 to 100, 0 no effect, 100 complete control
Method in brief: as §1

surinam grass = experiment: Test E preemergence; format: in vivo, Brachiaria decumbens; conditions: for Surinam Grass plant response rating: scale 0 to 100 (0 no effect, 100 complete control); for Plant response rating, Surinam Grass: 125 g ai/ha, scale 0 to 100, 0 no effect, 100 complete control
Method in brief: as §1

blackgrass = experiment: Test A postemergence; format: in vivo, Alopecurus myosuroides
Method in brief: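 Scoring: eye-based comparison with untreated controls, 0 for no effect through 100 for complete control, at about day 10. Treatments: directed soil spray preemergence; foliar spray postemergence on 2–10 cm plants at the one- to two-leaf stage. Medium: loam soil with sand.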

yellow nutsedge = experiment: Test E preemergence; format: in vivo, Cyperus esculentus; conditions: for Nutsedge, Yellow plant response rating: scale 0 to 100 (0 no effect, 100 complete control); for Plant response rating, Nutsedge, Yellow: 125 g ai/ha, scale 0 to 100, 0 no effect, 100 complete control
Method in brief: as §1

[1] = 125 g ai/ha, 0 to 100 scale where 0 is no effect and 100 is complete control
[2] = 31 g ai/ha, 0 to 100 scale, 0 no effect, 100 complete control

| SMILES | Sandbur plant response rating (sandbur; 31 g ai/ha) | Sandbur plant response rating (sandbur; 62 g ai/ha) | Plant response rating, Sandbur (sandbur) | Kochia plant response rating (kochia; 31 g ai/ha) | Kochia plant response rating (kochia; 62 g ai/ha) | Plant response rating, Kochia (kochia) | Soybean plant response rating (soybean; 31 g ai/ha) | Plant response rating, Soybean (soybean) | Ryegrass, Italian plant response rating (Italian ryegrass; 31 g ai/ha) | Ryegrass, Italian plant response rating (Italian ryegrass; 62 g ai/ha) | Plant response rating, Ryegrass, Italian (Italian ryegrass) | Foxtail, Giant plant response rating (giant foxtail; 16 g ai/ha) | Foxtail, Giant plant response rating (giant foxtail; 31 g ai/ha) | Foxtail, Giant plant response rating (giant foxtail; 62 g ai/ha) | Plant response rating, Foxtail, Giant (giant foxtail) | Pigweed, Palmer plant response rating (palmer pigweed; 31 g ai/ha) | Pigweed, Palmer plant response rating (palmer pigweed; 62 g ai/ha) | Plant response rating, Pigweed, Palmer (palmer pigweed) | Surinam Grass plant response rating (surinam grass; 31 g ai/ha) | Surinam Grass plant response rating (surinam grass; 62 g ai/ha) | further results |
| --- | --- | --- | --- | --- | --- | --- | --- | --- | --- | --- | --- | --- | --- | --- | --- | --- | --- | --- | --- | --- | --- |
| FC(F)(F)COc1cnn(-c2ccccc2Oc2ncc(Cl)cn2)c1 [Compound 138, 5-chloro-2-[2-[4-(2,2,2-trifluoroethoxy)-1H-pyrazol-1-yl]phenoxy]pyrimidine] | 0 | 10 | 15 | 75 | 90 | 100 | 0 | 35 | 0 | 0 | 20 | 0 | 0 | 30 | 75 | 70 | 75 | 70 | 0 | 20 | Sandbur plant response rating (sandbur; 16 g ai/ha): 0; Kochia plant response rating (kochia; 16 g ai/ha): 60; Soybean plant response rating (soybean; 16 g ai/ha): 0; Ryegrass, Italian plant response rating (Italian ryegrass; 16 g ai/ha): 0; Pigweed, Palmer plant response rating (palmer pigweed; 16 g ai/ha): 0; Surinam Grass plant response rating (surinam grass; 16 g ai/ha): 0; Plant response rating, Surinam Grass (surinam grass): 50; Blackgrass plant response rating (blackgrass; [1]): 50; Plant response rating, Blackgrass (blackgrass; 500 g ai/ha, 0 to 100 scale where 0 is no effect and 100 is complete control): 90; Nutsedge, Yellow plant response rating (yellow nutsedge; 16 g ai/ha): 0; Nutsedge, Yellow plant response rating (yellow nutsedge; 31 g ai/ha): 10; Nutsedge, Yellow plant response rating (yellow nutsedge; 62 g ai/ha): 15; Plant response rating, Nutsedge, Yellow (yellow nutsedge): 40 |
| N#Cc1cnn(-c2c(CF)cccc2Oc2ncc(F)cn2)c1 [Compound 151] | 0 | 0 | 35 | 80 | 90 | 100 | 30 | 75 | 10 | 10 | 65 | 0 | 25 | 60 | 95 | 100 | 100 | 100 | 0 | 35 | Plant response rating, Surinam Grass (surinam grass): 100; Plant response rating, Blackgrass (blackgrass; [2]): 20; Blackgrass plant response rating (blackgrass; [1]): 50; Nutsedge, Yellow plant response rating (yellow nutsedge; 31 g ai/ha): 0; Nutsedge, Yellow plant response rating (yellow nutsedge; 62 g ai/ha): 0; Plant response rating, Nutsedge, Yellow (yellow nutsedge): 0 |
| FCc1cccc(Oc2ncc(Cl)cn2)c1-n1cc(Cl)cn1 [Compound 250] | 0 | 0 | 25 | 0 | 0 | 98 | 0 | 65 | 0 | 0 | 0 | 0 | 0 | 15 | 98 | 0 | 0 | 100 | 0 | 0 | Soybean plant response rating (soybean; 62 g ai/ha): 15; Plant response rating, Surinam Grass (surinam grass): 0; Plant response rating, Blackgrass (blackgrass; [2]): 70; Plant response rating, Blackgrass (blackgrass; 125 g ai/ha, 0 to 100 scale, 0 no effect, 100 complete control): 100; Nutsedge, Yellow plant response rating (yellow nutsedge; 31 g ai/ha): 0; Nutsedge, Yellow plant response rating (yellow nutsedge; 62 g ai/ha): 0; Plant response rating, Nutsedge, Yellow (yellow nutsedge): 40 |
